This note sets out measurements from patent US7892350B2, “Sacrificial agents for fly ash concrete” (Boral Material Technologies Inc., priority 2003, dated 2011).

A short description of this experiment: Second sacrificial agent testing protocol: paste air measurements with DDBS (0.0125 wt %) and rating. On Overall performance rating (second protocol rating): key: 0: Fail; 1: Poor; 2: Good; 3: Preferred; 4: Most preferred. On SA Rating (0-4): key: 0: Fail; 1: Poor; 2: Good; 3: Preferred; 4: Most preferred. On the procedure: The second sacrificial agents evaluation protocol has been designed to assess the relative potential value of candidate sacrificial agents with a maximum of five paste air measurements.
The first two measurements (of entrained air) are carried out with a standard AEA in a portland cement paste and in a FA:cement paste; these two tests provide reference values which can be used for the relative assessment of a series of sacrificial agents. The other three paste air measurements pertain to the properties and effectiveness of the sacrificial agents.
1. Measurement of the air entrained by a standard air-entraining admixture in a cement paste of fixed composition and fluidity; the latter is a reference system which provides ‘reference’ air entrainment values (‘A’ in FIG. 8).
2. […] The difference between ‘B’ and ‘A’ in FIG. 8 is the reduction in air entrainment due to the presence of the fly ash; this is illustrated as ‘C’ in FIG. 8.
In the present SA testing and evaluation protocol, the fly ash selected should remain the same for the entire set of additives tested, in order to provide reliable relative performance ranking. For the present series of test, the Fly Ash selected was the one identified as B1 in Table 1 below; the physico-chemical properties of this fly ash are reported in Table 1.
In testing for the relative performance of the sacrificial agent, the sacrificial agent dosage was chosen in the range 0-0.1 wt %, which corresponds to typical dosage values observed in paste, mortar and concrete tests reported in Tables 2, 3 and 4 and Tables 7 to 34.
3. Measurement of the air entrainment of the SA, by itself, in a cement-only paste at a dosage of 0.1 wt %; this is illustrated as ‘D’ in FIG. 8.
4. Measurement of the air entrained by DDBS in the FA-cement paste comprising 0.05% wt SA, under the same conditions as described in 2 above. The air entrainment value observed in this system, compared to that observed in the absence of the SA, yields the air recovery due to the SA, and is illustrated schematically as ‘E’ in FIG. 8.
5. Same as in 4 above, but with a higher SA concentration at 0.1 wt %; the air entrainment observed, again compared to the value observed in the absence of the SA, yields a second value of air recovery by the SA and is illustrated as ‘F’ in FIG. 8.
For the relative performance rating of the group of products chosen as potential SA and listed in Table 36, the following rating scheme (Tables A and B) was adopted (referring to FIG. 8 and quantities defined therein):
1: Chemical name of compound tested as potential sacrificial agent • Col. 2: Level of air entrainment by the candidate sacrificial agent, at a concentration of 0.1 wt %, in a Portland cement paste ([…]) • Col. […] 5: Sacrificial agent overall rating index (described below) • Col. 6: Hydrophilic-Lipophilic Balance (HLB) values of candidate sacrificial agent (source and significance of HLB data given below) • Col. 7: Logarithm of the Oil(octanol)/water partition coefficient (Kow) of the candidate sacrificial agents (source and significance of data given below).

[1] abbreviates: B1 FA/cement paste, 0.0125 wt % DDBS, 0.05 wt % SA.
[2] abbreviates: B1 FA/cement paste, 0.0125 wt % DDBS, 0.10 wt % SA.
[3] abbreviates: Portland cement paste (PCA), […].
[4] abbreviates: sacrificial agent overall rating index.
[5] abbreviates: sum of ratings of air entrainment recovery by 0.05% and 0.1% SA, DDBS 0.0125 wt %, 50:50 B1 fly ash:cement paste.

Read-outs that look alike come from different tables or passages of the source.

On to `CCOCCOC(C)=O` [Ethylene glycol mono-ethyl ether acetate], for which the “Overall performance rating (second protocol rating)” value (“Overall performance rating” for short) amounted to 2.

On to `O=C(O)c1ccc2ccccc2c1` [2-Naphthoic acid], for which, under setting [1], the “B1 + 0.0125% DDBS + 0.05% SA (air entrainment)” value (shortened to “B1 + 0.0125% DDBS + 0.05% SA”) is 3.2. Moreover, under setting [2], the “B1 + 0.0125% DDBS + 0.1% SA (air entrainment)” value (“B1 + 0.0125% DDBS + 0.1% SA” below) turned out to be 4.2. In addition, the “PCA + 0.1% SA (level of air entrainment by the candidate sacrificial agent)” value (“PCA + 0.1% SA” for short) under setting [3] is 1.3. In addition, the “SA Rating (0-4)” value under setting [4] amounted to 1. In addition, the “Overall performance rating” value under setting [5] came to 1.

In the case of `CC(C)(C)CO` [Neopentanol], the “Overall performance rating” value came to 3. For the same compound, under “B1 FA/cement paste, […]”, the “B1 + 0.0125% DDBS + 0.05% SA” value is reported as 4.9 and the “B1 + 0.0125% DDBS + 0.1% SA” value came to 4.7. For the same compound, under setting [3], the “PCA + 0.1% SA” value came out at 0.8. The “SA Rating (0-4)” value under setting [4] was determined as 3.

In the case of `O=S(=O)(O)c1ccc(O)cc1` [4-Hydroxybenzenesulfonic acid], under setting [1], the “B1 + 0.0125% DDBS + 0.05% SA” value turned out to be 2.1. Under setting [2], the “B1 + 0.0125% DDBS + 0.1% SA” value turned out to be 2.0. The “PCA + 0.1% SA” value under setting [3] is listed as 0.1. The “SA Rating (0-4)” value under setting [4] was 0.

For the compound `OCCNCCO` [Di-ethanolamine], for the setting “B1 FA/cement paste, […]”, the “B1 + 0.0125% DDBS + 0.05% SA” value worked out at 2.7 and the “B1 + 0.0125% DDBS + 0.1% SA” value came out at 2.6. Under setting [3], the “PCA + 0.1% SA” value worked out at 0.3. Further, the “SA Rating (0-4)” value under setting [4] turned out to be 0.

Regarding `CCCCOCCO` [Ethylene Glycol n-Butyl Ether], the “Overall performance rating” value is recorded as 4. In addition, under “B1 FA/cement paste, […]”, the “B1 + 0.0125% DDBS + 0.05% SA” value stood at 8.8 and the “B1 + 0.0125% DDBS + 0.1% SA” value is reported as 9.5. Moreover, the “PCA + 0.1% SA” value under setting [3] is listed as 2.0. The “SA Rating (0-4)” value under setting [4] is 4.

Turning to `CC#N` [Acetonitrile], under “B1 FA/cement paste, […]”, the “B1 + 0.0125% DDBS + 0.05% SA” value came to 2.3 and the “B1 + 0.0125% DDBS + 0.1% SA” value is given as 2.5. The “PCA + 0.1% SA” value under setting [3] is listed as 0.5. The “SA Rating (0-4)” value under setting [4] is 0.

Take `CC(O)CNCC(C)O` (stereo not drawn) [Di-isopropanolamine]: the “B1 + 0.0125% DDBS + 0.05% SA” value came to 4.6, the “B1 + 0.0125% DDBS + 0.1% SA” value was 5.5, the “Overall performance rating” value is listed as 3 and the “PCA + 0.1% SA” value was 1.1. Further, the “SA Rating (0-4)” value was 3.

Consider `NCCOCCO` [2-(2-Aminoethoxy)ethanol], for which the “B1 + 0.0125% DDBS + 0.05% SA” value under setting [1] is listed as 3.1. The “B1 + 0.0125% DDBS + 0.1% SA” value under setting [2] was 3.9. For the same compound, under setting [3], the “PCA + 0.1% SA” value amounted to 0.5. The “SA Rating (0-4)” value under setting [4] is 1. Also, the “Overall performance rating” value under setting [5] is listed as 1.

For the compound 1-Octanol, under setting [1], the “B1 + 0.0125% DDBS + 0.05% SA” value amounted to 2.1. Also, the “B1 + 0.0125% DDBS + 0.1% SA” value under setting [2] is reported as 1.4. In addition, the “PCA + 0.1% SA” value under setting [3] was 0.0. Besides, the “SA Rating (0-4)” value under setting [4] is 0.

For the compound POE (20) Sorbitan monolaurate [Tween®], the “Overall performance rating” value under setting [5] amounted to 4.

As to `CCN1CCCC1=O` [1-Ethyl-2-Pyrrolidinone], the “Overall performance rating” value came out at 3. Where the note is “B1 FA/cement paste, […]”, the “B1 + 0.0125% DDBS + 0.05% SA” value turned out to be 4.3 and the “B1 + 0.0125% DDBS + 0.1% SA” value was 5.6. Besides, the “PCA + 0.1% SA” value under setting [3] came out at 2.5. For the same compound, the “SA Rating (0-4)” value under setting [4] is listed as 3.

As for `CCOCCOC(C)=O` [E.G. mono-ethyl ether acetate], the “B1 + 0.0125% DDBS + 0.05% SA” value amounted to 4.7, the “B1 + 0.0125% DDBS + 0.1% SA” value was 4.7, the “PCA + 0.1% SA” value amounted to 0.0 and the “SA Rating (0-4)” value was 2.

Regarding `C=CN1CCCC1=O` [n-Vinyl-2-pyrrolidinone], the “Overall performance rating” value stood at 1. Where the note is “B1 FA/cement paste, […]”, the “B1 + 0.0125% DDBS + 0.05% SA” value is on record as 3.7 and the “B1 + 0.0125% DDBS + 0.1% SA” value is on record as 4.3. Also, the “PCA + 0.1% SA” value under setting [3] is given as 2.8. The “SA Rating (0-4)” value under setting [4] amounted to 1.

Take `COC(=O)CC(=O)OC` [Dimethyl malonate]: for the setting “B1 FA/cement paste, […]”, the “B1 + 0.0125% DDBS + 0.05% SA” value is reported as 2.5 and the “B1 + 0.0125% DDBS + 0.1% SA” value is 2.6. Further, the “PCA + 0.1% SA” value under setting [3] was 0.2. For the same compound, under setting [4], the “SA Rating (0-4)” value stood at 0.

In the case of `CCCC[N+](CCCC)(CCCC)CCCC.[Cl-]` [Tetrabutyl ammonium chloride], the “B1 + 0.0125% DDBS + 0.05% SA” value is 4.9, the “B1 + 0.0125% DDBS + 0.1% SA” value was 4.1, the “Overall performance rating” value was 3 and the “PCA + 0.1% SA” value turned out to be 0.6. Moreover, the “SA Rating (0-4)” value came to 3.

As to `OCCc1ccccc1` [Phenyl ethyl alcohol], the “Overall performance rating” value is on record as 3. For the same compound, where the note is “B1 FA/cement paste, […]”, the “B1 + 0.0125% DDBS + 0.05% SA” value is on record as 4.5 and the “B1 + 0.0125% DDBS + 0.1% SA” value amounted to 5.5. Also, the “PCA + 0.1% SA” value under setting [3] is reported as 0.7. Besides, the “SA Rating (0-4)” value under setting [4] is 3.

With Polyethylene glycol 2000, the “Overall performance rating” value under setting [5] is 4.

For the compound `O[C@H]1[C@H](O)[C@@H](O)[C@H](O)[C@@H](O)[C@H]1O` [Inositol], where the note is “B1 FA/cement paste, […]”, the “B1 + 0.0125% DDBS + 0.05% SA” value was determined as 2.1 and the “B1 + 0.0125% DDBS + 0.1% SA” value is listed as 2.1. The “PCA + 0.1% SA” value under setting [3] was found to be 0.1. Also, the “SA Rating (0-4)” value under setting [4] worked out at 0.

Take `OC[C@@H](O)[C@@H](O)[C@H](O)[C@@H](O)CO` [Sorbitol]: the “Overall performance rating” value was 1. Moreover, where the note is “B1 FA/cement paste, […]”, the “B1 + 0.0125% DDBS + 0.05% SA” value amounted to 2.2 and the “B1 + 0.0125% DDBS + 0.1% SA” value was determined as 4.2. Besides, under setting [3], the “PCA + 0.1% SA” value is 0.5. Besides, the “SA Rating (0-4)” value under setting [4] came out at 1.

For `CCO` [Ethanol], the “B1 + 0.0125% DDBS + 0.05% SA” value is reported as 3.1, the “B1 + 0.0125% DDBS + 0.1% SA” value came out at 3.3, the “PCA + 0.1% SA” value was found to be 1.5 and the “SA Rating (0-4)” value is recorded as 0.

For `CC(O)CN(CC(C)O)CC(C)O` (stereo not drawn) [Tri-iso-propanolamine], the “Overall performance rating” value was determined as 4.

On to `CCCN(CCC)CCC` [Tripropylamine], for which, for the setting “B1 FA/cement paste, […]”, the “B1 + 0.0125% DDBS + 0.05% SA” value is reported as 2.6 and the “B1 + 0.0125% DDBS + 0.1% SA” value came out at 2.4. Besides, the “PCA + 0.1% SA” value under setting [3] amounted to 0.3. For the same compound, the “SA Rating (0-4)” value under setting [4] is 0.

For the compound `CCCC(=O)OCC` [Ethylbutyrate], the “Overall performance rating” value came to 3. Moreover, where the note is “B1 FA/cement paste, […]”, the “B1 + 0.0125% DDBS + 0.05% SA” value was determined as 5.2 and the “B1 + 0.0125% DDBS + 0.1% SA” value was 4.3. Under setting [3], the “PCA + 0.1% SA” value was found to be 0.7. For the same compound, the “SA Rating (0-4)” value under setting [4] was determined as 3.

Turning to `CC(C)(C)O` [t-Butanol], the “Overall performance rating” value was 4.

With Methylnaphthalene sulfonate Na, the “Overall performance rating” value under setting [5] turned out to be 4.

In the case of `CC(C)COCCO` [Ethylene Glycol iso-Butyl Ether], the “B1 + 0.0125% DDBS + 0.05% SA” value under setting [1] is 8.8. Moreover, the “B1 + 0.0125% DDBS + 0.1% SA” value under setting [2] came out at 9.5. The “PCA + 0.1% SA” value under setting [3] amounted to 1.7. In addition, the “SA Rating (0-4)” value under setting [4] is listed as 4. Besides, the “Overall performance rating” value under setting [5] is given as 4.
